From patent publication US12377104B1, “Methods for treating a fatty liver disease” (Madrigal Pharmaceuticals, Inc., priority 2024, dated 2025)

Test system: adults with biopsy-confirmed NASH
Assay: MAESTRO-NASH: liver enzymes, imaging and biomarkers (MRI-PDFF, CAP, VCTE, MRE, liver and spleen volume, ELF)
Type: in vivo, human
[1] = 100 mg, wk 48, baseline ALT ≥30 U per liter
[2] = 100 mg, F1B, responder analysis
[3] = 100 mg, week 52, baseline ELF score ≥9.8
[4] = 100 mg, week 52, baseline PIIINP ≥9 ng/mL
[5] = 100 mg, week 52, baseline TIMP-I ≥240 ng/ml
[6] = 100 mg, week 52, baseline hyaluronic acid ≥50 ng/ml

CC(C)c1cc(Oc2c(Cl)cc(-n3nc(C#N)c(=O)[nH]c3=O)cc2Cl)n[nH]c1=O [Resmetirom, 2-(3,5-dichloro-4-((5-isopropyl-6-oxo-1,6-dihydropyridazin-3-yl)oxy)phenyl)-3,5-dioxo-2,3,4,5-tetrahydro-1,2,4-triazine-6-carbonitrile]
Hyaluronic acid, LS mean CFB difference from PBO (80 mg, week 52, baseline hyaluronic acid ≥50 ng/ml): 0.58 µg/L
Alanine aminotransferase level, difference from placebo (100 mg, wk 48): −26.3 percentage points
Aspartate aminotransferase level, difference from placebo (100 mg, wk 48): −25.4 percentage points
γ-Glutamyltransferase level, difference from placebo (100 mg, wk 48): −35.2 percentage points
Alanine aminotransferase level, least-squares mean percent change from baseline [1]: −33.2 ± 3.9%
Aspartate aminotransferase level, least-squares mean percent change from baseline [1]: −28.3 ± 3.9%
γ-Glutamyltransferase level, least-squares mean percent change from baseline [1]: −31.9 ± 6.3%
MRI-PDFF, difference from placebo (100 mg, wk 52): −37.9 percentage points
MRI-PDFF, least-squares mean percent change from baseline (100 mg, wk 52): −46.6 ± 2.8%
MRE ≥19% increase from BL, % of patients [2]: (20.0) %
MRE ≥19% increase from BL, no. of patients [2]: 1
MRE ≥19% reduction from BL, no. of patients [2]: 0
VCTE/LSM improving >25%, % of patients [2]: (70.0) %
VCTE/LSM improving >25%, no. of patients [2]: 7
VCTE/LSM improving ≥30%, % of patients [2]: (60.0) %
VCTE/LSM improving ≥30%, no. of patients [2]: 6
VCTE/LSM worsening ≥25%, no. of patients [2]: 0
VCTE/LSM worsening ≥30%, no. of patients [2]: 0
FibroScan VCTE/LSM, LS mean CFB (100 mg, F1B, week 52): −3.7 kPa
FibroScan VCTE/LSM, LS mean CFB difference from PBO (100 mg, F1B, week 52): −3.1 kPa
MRE, LS mean % CFB (100 mg, F1B, week 52): 2.4%
MRE, LS mean % CFB difference from PBO (100 mg, F1B, week 52): −5.1%
MRE ≥19% increase from BL, no. of patients (100 mg, F2, responder analysis): 0
MRE ≥19% reduction from BL, % of patients (100 mg, F2, responder analysis): (22.7) %
MRE ≥19% reduction from BL, no. of patients (100 mg, F2, responder analysis): 5
VCTE/LSM improving ≥25%, % of patients (100 mg, F2, responder analysis): (50.0) %
VCTE/LSM improving ≥25%, no. of patients (100 mg, F2, responder analysis): 38
VCTE/LSM improving ≥30%, % of patients (100 mg, F2, responder analysis): (40.8) %
VCTE/LSM improving ≥30%, no. of patients (100 mg, F2, responder analysis): 31
VCTE/LSM worsening ≥25%, % of patients (100 mg, F2, responder analysis): (10.5) %
VCTE/LSM worsening ≥25%, no. of patients (100 mg, F2, responder analysis): 8
VCTE/LSM worsening ≥30%, % of patients (100 mg, F2, responder analysis): (6.6) %
VCTE/LSM worsening ≥30%, no. of patients (100 mg, F2, responder analysis): 5
FibroScan VCTE/LSM, LS mean CFB (100 mg, F2, week 52): −2.4 kPa
FibroScan VCTE/LSM, LS mean CFB difference from PBO (100 mg, F2, week 52): −1.2 kPa
MRE, LS mean % CFB (100 mg, F2, week 52): 1.1%
MRE, LS mean % CFB difference from PBO (100 mg, F2, week 52): 0.99%
MRE ≥19% increase from BL, % of patients (100 mg, F3, responder analysis): (8.1) %
MRE ≥19% increase from BL, no. of patients (100 mg, F3, responder analysis): 7
MRE ≥19% reduction from BL, % of patients (100 mg, F3, responder analysis): (31.4) %
MRE ≥19% reduction from BL, no. of patients (100 mg, F3, responder analysis): 27
VCTE/LSM improving ≥25%, % of patients (100 mg, F3, responder analysis): (47.9) %
VCTE/LSM improving ≥25%, no. of patients (100 mg, F3, responder analysis): 80
VCTE/LSM improving ≥30%, % of patients (100 mg, F3, responder analysis): (38.9) %
VCTE/LSM improving ≥30%, no. of patients (100 mg, F3, responder analysis): 65
VCTE/LSM worsening ≥25%, % of patients (100 mg, F3, responder analysis): (10.8) %
VCTE/LSM worsening ≥25%, no. of patients (100 mg, F3, responder analysis): 18
VCTE/LSM worsening ≥30%, % of patients (100 mg, F3, responder analysis): (10.2) %
VCTE/LSM worsening ≥30%, no. of patients (100 mg, F3, responder analysis): 17
FibroScan VCTE/LSM, LS mean CFB (100 mg, F3, week 52): −3.2 kPa
FibroScan VCTE/LSM, LS mean CFB difference from PBO (100 mg, F3, week 52): −2.1 kPa
MRE, LS mean % CFB (100 mg, F3, week 52): 5.2%
MRE, LS mean % CFB difference from PBO (100 mg, F3, week 52): −4.8%
Liver volume, LS mean % CFB (100 mg, week 16): -21.4%
Liver volume, LS mean % CFB difference from PBO (100 mg, week 16): −21.1%
MRI-PDFF % fat fraction, LS mean % CFB (100 mg, week 16): 42.1%
MRI-PDFF % fat fraction, LS mean % CFB difference from PBO (100 mg, week 16): −35.7%
Spleen volume, LS mean % CFB (100 mg, week 16): 3.6%
Spleen volume, LS mean % CFB difference from PBO (100 mg, week 16): −5.0%
ALT, LS mean % CFB (100 mg, week 48): −33.2%
ALT, LS mean % CFB difference from PBO (100 mg, week 48): −26.3%
ALT, LS mean CFB (100 mg, week 48): 24.8 U/L
AST, LS mean % CFB (100 mg, week 48): 28.3%
AST, LS mean % CFB difference from PBO (100 mg, week 48): −25.4%
AST, LS mean CFB (100 mg, week 48): 15.8 U/L
GGT, LS mean % CFB (100 mg, week 48): -31.9%
GGT, LS mean % CFB difference from PBO (100 mg, week 48): −35.2%
GGT, LS mean CFB (100 mg, week 48): -32.7 U/L
Adiponectin, LS mean CFB (100 mg, week 52): 1.1 µg/mL
Adiponectin, LS mean CFB difference from PBO (100 mg, week 52): 1.3 µg/mL
CK-18, LS mean CFB (100 mg, week 52): -310 U/L
CK-18, LS mean CFB difference from PBO (100 mg, week 52): −165.7 U/L
FibroScan CAP, LS mean CFB (100 mg, week 52): −41.3 dB/m
FibroScan CAP, LS mean CFB difference from PBO (100 mg, week 52): −26.9 dB/m
Liver volume, LS mean % CFB (100 mg, week 52): -25.8%
Liver volume, LS mean % CFB difference from PBO (100 mg, week 52): 24.8%
MRI-PDFF % fat fraction, LS mean % CFB (100 mg, week 52): 46.6%
MRI-PDFF % fat fraction, LS mean % CFB difference from PBO (100 mg, week 52): −37.9%
Spleen volume, LS mean % CFB (100 mg, week 52): −6.1%
Spleen volume, LS mean % CFB difference from PBO (100 mg, week 52): −9.3%
Enhanced liver fibrosis score, LS mean CFB [3]: −0.35
Enhanced liver fibrosis score, LS mean CFB difference from PBO [3]: −0.24
PIIINP, LS mean % CFB [4]: -10.3%
PIIINP, LS mean % CFB difference from PBO [4]: −9.3%
PIIINP, LS mean CFB [4]: -2.1 ng/mL
PIIINP, LS mean CFB difference from PBO [4]: -1.4 ng/mL
TIMP-I, LS mean % CFB [5]: −10.1%
TIMP-I, LS mean % CFB difference from PBO [5]: −6.5%
TIMP-I, LS mean CFB [5]: -35.7 ng/mL
TIMP-I, LS mean CFB difference from PBO [5]: -22.3 ng/mL
Hyaluronic acid, LS mean % CFB [6]: 11.8%
Hyaluronic acid, LS mean % CFB difference from PBO [6]: −13.0%
Hyaluronic acid, LS mean CFB [6]: -2.9 µg/L
Hyaluronic acid, LS mean CFB difference from PBO [6]: -3.5 µg/L
